# Data from patent publication US20230121313A1 (priority 2019, published 2023).
# Assays:
# adult subjects with TRD = conditions: human, in vivo, other: intranasal
# Procedure: The CADSS is an instrument for the measurement of present-state dissociative symptoms, and was administered to assess treatment-emergent dissociative symptoms. The CADSS consists of 23 subjective items, divided into 3 components: Depersonalization (Items 3 to 7, 20, and 23), derealization (Items 1, 2, 8 to 13, 16 to 19, and 21) and amnesia (Items 14, 15, and 22). Participant's responses were coded on a 5-point scale (0=not at all through to 4=extremely).
# (§1) The Clinician Administered Dissociative States Scale (CADSS) was measured prior to the start of each dose, at 40 minutes, and 1.5 hours postdose.
# [1] = system: patients with treatment-resistant depression (TRD); assay: CGI-S, phase 2 dose-response study in TRD; type: in vivo, human
# Procedure: Overall illness severity was assessed on the Clinical Global Impression of Severity (CGI-S) scale (Guy, “ECDEU Assessment Manual for Psychopharmacology-Revised (DHEW Publ No ADM 76-338)”, Rockville, Md.: U.S. Department of Health, Education, and Welfare, Public Health Service, Alcohol, Drug Abuse, and Mental Health Administration, NIMH Psychopharmacology Research Branch, Division of Extramural Research Programs; 1976, pp 218-222). Participants assessed their severity of anxiety on the Generalized Anxiety Disorder 7-item (GADS-7) Scale (See, Tables 157 and 158). See, Spitzer, “A brief measure for assessing generalized anxiety disorder—the GAD-7”, Arch. Intern. Med., 2006, 166(10):1092-1097.
# [2] = system: elderly subjects with TRD; conditions: human, in vivo, other: intranasal
# Procedure: as §1
# [3] = system: elderly subjects with TRD; assay: MADRS total score, Study […]3005 (change, response, remission); type: in vivo, human
# Procedure: The primary objective of this study was to evaluate the efficacy of switching elderly subjects with treatment-resistant depression (TRD) from a prior antidepressant treatment (to which they have not responded) to flexibly dosed intranasal esketamine (28 mg, 56 mg or 84 mg) plus a newly initiated oral antidepressant compared with switching to a newly initiated oral antidepressant plus intranasal placebo, in improving depressive symptoms, as assessed by the change from baseline in the Montgomery-Asberg Depression Rating Scale (MADRS) total score from Day 1 (pre-randomization) to the end of the 4-week double-blind induction phase.
# Primary Efficacy Evaluation: The primary efficacy evaluation is described in Example 1. Key Secondary Efficacy Evaluation (Clinician-completed): The key secondary efficacy evaluation (clinician-completed) is described in Example 1. Key Secondary Efficacy Evaluation (Patient-reported Outcome): The key secondary efficacy evaluation (patient-reported outcome) is described in Example 1. Primary Endpoint: The primary efficacy endpoint is described in Example 1. Primary Endpoint Results: The primary endpoint results are the same as described in Example 1. See, Table 34 and FIG. 19.
# As specified in the SAP, the weighted combination test was the primary analysis for the primary efficacy endpoint since an interim analysis for sample size re-estimation was conducted. A post-hoc analysis using an unweighted MMRM analysis (essentially disregarding the interim analysis) was performed and the one-sided p-value was 0.018 using this approach. The post-hoc one-sided p-value was 0.017 using the unweighted ANCOVA analysis.
# Response (≥50% improvement from baseline in the MADRS total score) and Remission (MADRS total score is ≤12) rates are presented in Table 35.
# For the clinician-rated assessments, MADRS was administered at baseline and days 8, 15, 22 and 28. MADRS scores were obtained remotely by telephone by independent raters blinded to subject's treatment response. Similarly, the Clinical Global Impressions-Severity (CGI-S) scale was administered at baseline; days 4, 8, 11, 15, 18, 22, 25; and at the 4-week double-blind end point.
# For the MADRS, PHQ-9, and SDS total scores, the test for treatment effect was based on mixed model for repeated measures (MMRM) on observed case data with change from baseline as the response variable and the fixed effect model terms for treatment (ESK+AD, AD+PBO), day, class of oral AD (SNRI or SSRI), and treatment-by-day, and baseline value as a covariate. […]
# Efficacy was determined by measuring MADRS total scores, SDS scores, PHQ-9 scores and CGI-S scores. […]
# [4] = system: subjects with MDD at imminent risk for suicide; assay: SIBAT Clinical Global Judgment of Suicide Risk, Study […]2001; type: in vivo, human; conditions: 84 mg
# Source text: • a. Changes from baseline to Day 2 and Day 25 for the MADRS total score • b. Changes from baseline to Day 1 4-hours postdose, Day 2 and Day 25 for the MADRS Suicide Item • c. Changes from baseline to Day 1 4-hours postdose, Day 2, and Day 25 for the clinical global judgment of suicide risk from the Suicide Ideation and Behavior Assessment Tool (SIBAT) • d. Sustained response (Onset of Clinical Response) defined as at least 50% reduction from baseline in MADRS total score with onset on Day 1 that is maintained through the end of the double-blind phase (Day 25) • e. Changes from baseline to Day 1 4-hours postdose, Day 2, and Day 25 for the Beck Scale for Suicidal Ideation (BSS) • f. Changes from baseline to Day 1 4-hours postdose and Day 25 for the Beck Hopelessness Scale
# The clinical global judgment of suicide risk (Module 8) summarizes clinician overall judgment of suicide risk as derived from information gathered from the full SIBAT tool. It operates like numerous other CGI-severity scales that have been used in other psychiatric studies. Change in the clinical global judgment of suicide risk is designed to directly identify clinical meaningful changes in suicidal ideation and to permit classification of suicide risk.
# The analysis of the change in SIBAT score was based on an ANCOVA model on ranks of change in SIBAT with treatment, antidepressant therapy, and analysis center as factors, and baseline value (unranked) as a covariate. There was a significant difference (two-sided […]) between the two treatment groups when comparing the mean rank of change from baseline at Day 1: 4-hours postdose in favor of esketamine 84 mg See, Table 58. See, FIG. 39. […] This difference was not evident at the Day 25 DB endpoint. See, FIG. 40, which is based on LOCF data and analyzed using Cochran-Mantel-Haenszel test controlling for analysis center and antidepressant therapy.
structure (smiles),measurement,setting,value
"CN[C@]1(c2ccccc2Cl)CCCCC1=O [esketamine, (S)-2-(2-chlorophenyl)-2-(methylamino)cyclohexanone]",CADSS dissociative and perceptual change symptoms resolved by (postdose),adult subjects with TRD,≤ 1.5 h
same,CGI-S Median (Range),"[1]; Period 1, 28 mg","4.0 (3, 5)"
same,CGI-S Median Change (Range) from baseline to end point,"[1]; Period 1, 28 mg","−1.0 (−2, 1)"
same,CGI-S Median (Range),"[1]; Period 1, 56 mg","4.0 (1, 5)"
same,CGI-S Median Change (Range) from baseline to end point,"[1]; Period 1, 56 mg","−1.0 (−3, 0)"
same,CGI-S Median (Range),"[1]; Period 1, 84 mg","4.0 (1, 6)"
same,CGI-S Median Change (Range) from baseline to end point,"[1]; Period 1, 84 mg","−0.5 (−4, 0)"
same,CGI-S Median (Range),"[1]; Period 2, 28 mg","4.0 (3, 5)"
same,CGI-S Median Change (Range) from baseline to end point,"[1]; Period 2, 28 mg","−1.0 (−1, 0)"
same,CGI-S Median (Range),"[1]; Period 2, 56 mg","5.0 (4, 6)"
same,CGI-S Median Change (Range) from baseline to end point,"[1]; Period 2, 56 mg","−1.0 (−2, 0)"
same,CGI-S Median (Range),"[1]; Period 2, 84 mg","4.0 (3, 5)"
same,CGI-S Median Change (Range) from baseline to end point,"[1]; Period 2, 84 mg","−1.0 (−2, 0)"
same,CADSS dissociative and perceptual change symptoms resolved by (postdose),[2],≤ 1.5 h
same,"MADRS total score: difference in LS mean change (SE), MMRM","[3]; Day 28, subjects aged 65-74",−4.9 (2.04)
same,"MADRS total score: difference in LS mean change (SE), MMRM","[3]; Day 28, subjects aged 75 and above",−0.4 (5.02)
same,MADRS total score: LS mean (SE) treatment difference,[3]; Stage 1 (enrolled before interim analysis),−1.6 (2.62)
same,MADRS total score: LS mean (SE) treatment difference,[3]; Stage 2 (enrolled after interim analysis),−5.6 (2.63)
same,"SIBAT Clinical Global Judgment of Suicide Risk, change from baseline, median (range)","[4]; Day 1 (DB): 4 H, LOCF, N 33",0.0 (−6; 1)
same,"SIBAT Clinical Global Judgment of Suicide Risk, median (range)","[4]; Day 1 (DB): 4 H, LOCF, N 33",5.0 (0; 6)
same,"SIBAT Clinical Global Judgment of Suicide Risk, change from baseline, median (range)","[4]; Day 2(DB) LOCF, N 35",−1.0 (−6; 1)
same,"SIBAT Clinical Global Judgment of Suicide Risk, median (range)","[4]; Day 2(DB) LOCF, N 35",5.0 (0; 6)
same,Subjects with a SIBAT score of 5 or 6,"[4]; […]2001, Day 1: 4-hour postdose",63.6%
